IC50, Dose and Activity data for 3 compounds are collected here from ChEMBL document CHEMBL1127155, “Synthesis and antiviral activity of 9-(phosphonoalkylnyloxy)purines: Novel acyclonucleotides” (Bioorg Med Chem Lett, 1993).

In brackets after ≈: the same amount, converted by molar mass.

Assay [1] has as its system Human alphaherpesvirus 1. The experiment in a line: Tested for the concentration at which compound showed activity against its effect on replication of herpes simplex type-1 (HSV-1). Format: functional, organism-based.
The test system of assay [2] is Human alphaherpesvirus 2. The experiment in a line: Tested for the concentration at which compound showed activity against its effect on replication of herpes simplex type-2 (HSV-2). The class given is functional, organism-based.
In assay [3] the test system is Cytomegalovirus. Briefly: Tested for the concentration at which compound showed activity against its effect on replication of Cytomegalovirus. Format: functional, organism-based. The conditions noted are these: Human betaherpesvirus 5.
Another assay relates to MRC5. The experiment in a line: Tested for inhibition of DNA synthesis in MRC-5 cells. Format: functional, cell-based. The conditions noted are these: Homo sapiens.
Assay [4] concerns Human alphaherpesvirus 1. Briefly: Tested for concentration at which cytotoxicity was observed in herpes simplex type-1 (HSV-1). The class given is functional.
The test system of a further assay is Human alphaherpesvirus 3. The experiment in a line: Tested for the concentration at which compound showed activity against its effect on replication of varicella zoster virus. The class given is functional, organism-based.
In assay [5] the test system is Human alphaherpesvirus 1. The experiment in a line: Tested for its effect on replication of herpes simplex type-1 (HSV-1) at the dose up to 100 ug/mL; NE: No effect on replication. The class given is functional, organism-based.
Assay [6] concerns Human alphaherpesvirus 2. The experiment in a line: Tested for the concentration at which compound showed activity against replication of herpes simplex type-2 (HSV-2). Format: functional, organism-based.
In assay [7] the test system is Cytomegalovirus. The experiment in a line: Tested for its effect on replication of cytomegalovirus (CMV) at the dose up to 100 ug/mL; NE: No effect on replication. Format: functional, organism-based.
Assay [8] deals with Cytomegalovirus. The experiment in a line: Tested for its effect on replication of cytomegalovirus (CMV) at the dose up to 100 ug/mL; NE: No effect on replication. Format: functional, organism-based.

Broadly, the IC50 is the concentration that gives 50% inhibition. A higher IC50 goes with weaker potency in that assay. `Nc1nc(O)c2ncn(OCC#CP(=O)(O)O)c2n1`: the IC50 is 6.5 µg/mL (≈ 22.8 µM) with Human alphaherpesvirus 1 [1]; 3.9 µg/mL (≈ 13.7 µM) in the assay on Human alphaherpesvirus 2 [2]; 3.8 µg/mL (≈ 13.3 µM) with Cytomegalovirus [3]; 4.2 µg/mL (≈ 14.7 µM) in the assay with MRC5; 3.2 µg/mL (≈ 11.2 µM) in the assay on Human alphaherpesvirus 3. In addition, the Dose with Human alphaherpesvirus 1 [4] was found to be 30 µg/mL.
With `Nc1nc(O)c2ncn(OCC/C(=C/Cl)P(=O)(O)O)c2n1`, the IC50 is 17 µg/mL (≈ 50.6 µM) in the assay with MRC5 and 25 µg/mL (≈ 74.5 µM) in the assay on Human alphaherpesvirus 2 [6]. The Activity entry in the assay on Human alphaherpesvirus 1 [5] and in the assay with Cytomegalovirus [7] was “No effect” each time.
Turning to `Nc1ncnc2c1ncn2OCC#CP(=O)(O)O`, the Activity result in the assay on Cytomegalovirus [8] and in the assay on Human alphaherpesvirus 1 [5] was “No effect” throughout. The values for the IC50 in the assay on MRC5 and in the assay with Human alphaherpesvirus 2 [6] were 98 µg/mL (≈ 364 µM) and 14 µg/mL (≈ 52 µM), respectively.
